How the values were obtained:
Type in all cases: cell-based
[1] = system: Escherichia coli BL21—Star (DE3) expressing DSM-2 (v2) (pDAB4412); assay: Complementation of cell growth on glufosinate, pET expression
From the text: A pET28a(+) expression plasmid containing PAT (v3) was constructed as a positive control. PAT (v3) was cloned as an NcoI-SacI fragment into corresponding restriction sites of pDAB779. Positive clones containing the PAT (v3) gene fragment were verified via restriction enzyme digestion. This construct was labeled as pDAB4434.
The plasmids, pDAB4434, pDAB4412, and an empty pET vector (control) were transformed into Escherichia coli BL21—Star (DE3) bacterial cells. Expression cultures were initiated with 10-200 freshly transformed colonies into 250 mL LB medium containing 50 μg/ml antibiotic and 75 μM IPTG (isopropyl-[…]). The cultures were grown at 28° C. for 24 hours at 180-200 rpm. Five microliters of the culture was inoculated onto a complex media control and minimal media containing incrementally increasing concentrations of glufosinate and 20 μM IPTG. The cultures were dispersed evenly over the plates and incubated at 28° C. for 24 hours.

[2] = system: Escherichia coli BL21—Star (DE3); assay: Bacterial growth on minimal media containing glufosinate (BASTA); conditions: only strain of five tested
Protocol: Selected cell lines of Escherichia coli and Agrobacterium tumefaciens were inoculated on minimal media containing incrementally increasing concentrations of Glufosinate (BASTA). The cell lines; BL21—Star (DE3), Top10, DH5═, Agrobacterium tumefaciens C58, and Agrobacterium tumefaciens LBA4404s were initially grown up on complex media. The Escherichia coli strains were grown in LB and the Agrobacterium tumefaciens strains were grown in YEP. Five microliters of bacterial culture was inoculated and dispersed evenly onto minimal media plates containing various concentrations of glufosinate. The concentrations consisted of 0 μg/ml, 250 μg/ml, 500 μg/ml, 1000 μg/ml, 2000 μg/ml, and 4000 μg/ml of BASTA. In addition, the bacterial strains were inoculated onto a plate of complex media as a control—Agrobacterium tumefaciens strains were inoculated on YEP agar plates, and Escherichia coli strains were inoculated on LB agar plates. The plates containing the Escherichia coli strains were incubated at 37° C. for 24 hours. The plates containing the Agrobacterium tumefaciens strains were incubate at 25° C. for 48 hours. […] Table 7 illustrates the capability of the various strains to grow on minimal media containing glufosinate.

[3] = system: Escherichia coli BL21—Star (DE3) with 3778 (AtUbi10 promoter//DSM-2 (v2)); assay: Complementation on glufosinate with plant/viral promoters; conditions: DSM-2 driven by At Ubi10 promoter
Protocol: (§1) Plasmid constructs in which the DSM-2 (v2) and PAT gene coding sequences were expressed, under either the viral promoters CsVMV or the plant promoter AtUbi10, were assayed for complementation on minimal media containing glufosinate. The plasmids 3778 (Rb7 MARv3//AtUbi10 promoter//DSM-2 (v2)//Atu Orf 1 3′UTR), 3779 (Rb7 MARv3//AtUbi10 promoter//PAT//Atu Orf 1 3′UTR), 3264 (CsVMV promoter//DSM-2//Atu Orf24 3′UTR), 3037 (CsVMV promoter//PAT//Atu Orf 25/26 3′UTR), and 770 (control plasmid containing CsVMV promoter//GUS v3//Atu Orf 24 3′UTR) were transformed into Escherichia coli BL21—Star (DE3) and grown up in complex media. Five microliters of the cultures were plated on minimal media containing increasing concentrations of Glufosinate and incubated at 37° C. for 48 hours.

[4] = system: Escherichia coli BL21—Star (DE3) with 3264 (CsVMV promoter//DSM-2); assay: as above; conditions: DSM-2 driven by CsVMV promoter
Protocol: as §1

[5] = system: NT-1 tobacco cells transformed with pDAB3778 (DSM-2); assay: Tobacco cell culture transformation, selection frequency; conditions: second experiment
Protocol: Four days prior to transformation, a 1 week old NT-1 tobacco suspension, which was being subcultured every 7 days, was subcultured to fresh medium by adding 2 ml of the NT-1 culture or 1 ml of packed cells into 40 ml NT-1 B media. The subcultured suspension was maintained in the dark at 25±1° C. on a shaker at 125 rpm.
A 50% glycerol stock of Agrobacterium tumefaciens [strain LBA4404] harboring a binary vector of interest was used to initiate a liquid overnight culture by adding 20, 100, or […] to 30 ml YEP liquid (10 g/L yeast extract, 10 g/L Peptone, 5 g/L NaCl, 0-10 g/L Sucrose) containing 50-100 mg/L spectinomycin. The bacterial culture was incubated in the dark at 28° C. in an incubator shaker at 150-250 rpm until the OD600 was 1.5±0.2. This took approximately 18-20 hrs.
For each vector tested, 20-70 mL of 4-day old suspension cells were transferred into a sterile vessel, to which 500-1750 μl of Agrobacterium suspension at the proper OD was added. To ensure a uniform mixture was achieved, the cells were pipetted up and down 5 times with a 10 ml wide-bore pipet. The uniform suspension was then drawn up into a 25 ml barrel of a repeat pipetter and 250 μl of the suspension was dispensed per well into 24-well plates, continuing until the suspension was exhausted. The well plates were wrapped in parafilm and cultured in the dark at 25±1° C. without shaking for a 3 day co-cultivation.
Following the co-cultivation, all excess liquid was removed from the individual wells with a 1 mL pipet tip, and remaining cells were resuspended in 1 ml NTC liquid (NT-1 B medium containing 500 mg/L carbenicillin, added after autoclaving). The contents of an individual well were dispersed across the entire surface of 100×25 mm selection plates using disposable transfer pipets. Selection media consisted of NTC media solidified with 8 g/l TC agar supplemented with 7.5 to 15 mg/L bialaphos or technical grade glufosinate ammonium, added after autoclaving. All selection plates, left unwrapped, were maintained in the dark at 28° C.
Putative transformants appeared as small clusters of callus on a background of dead, non-transformed cells. Calli were isolated approximately 2-6 weeks post-transformation. Each callus isolate was transferred to its own 60×20 mm plate containing the same selection medium and allowed to grow for approximately 2 weeks before being submitted for analysis.
A side-by-side experiment comparing DSM-2 (v2) with PAT was completed. In the study, 100% of the PAT selection plates produced at least one PCR positive isolate on 10 mg/L bialaphos media, whereas 79% of the DSM-2 (v2) selection plates produced at least one PCR positive isolate.
In a second experiment, DSM-2 (v2)-treated tobacco cells were selected upon 7.5, 10, 12.5, or 15 mg/L bialaphos or technical grade glufosinate ammonium. Transformation frequencies (% of selection plates producing at least one callus) following verification by coding region PCR are listed in the table below.

Row | SMILES | glufosinate concentration on minimal media to which DSM-2 expression complemented resistance [1] [µg/mL] | inhibition of growth on minimal media [2] | glufosinate concentration in minimal media to which resistance was provided [3] [µg/mL] | glufosinate concentration in minimal media to which resistance was provided [4] [µg/mL] | Transformation frequencies (% of selection plates producing at least one callus) following verification by coding region PCR ([5]; 7.5 mg/L in selection medium) [%] | Transformation frequencies (% of selection plates producing at least one callus) following verification by coding region PCR ([5]; 10 mg/L in selection medium) [%] | Transformation frequencies (% of selection plates producing at least one callus) following verification by coding region PCR ([5]; 12.5 mg/L in selection medium) [%] | Transformation frequencies (% of selection plates producing at least one callus) following verification by coding region PCR ([5]; 15 mg/L in selection medium) [%]
1 | CP(=O)(O)CCC(N)C(=O)O (stereo not drawn) [glufosinate] | 400 | substantially inhibited | 200 | 200 | 55.6 | 50.0 | 44.4 | 38.9
2 | C[C@H](NC(=O)[C@H](C)NC(=O)[C@@H](N)CCP(C)(=O)O)C(=O)O [Bialaphos] |  |  |  |  | 38.9 | 44.4 | 38.9 | 22.2

Source: US10752913B2, “Selectable marker genes” (Dow AgroSciences LLC, priority 2006, dated 2020)
